Results on eight compounds are retold here after ChEMBL document CHEMBL2073822, “cDNA sequence, transport function, and genomic organization of human OCTN2, a new member of the organic cation transporter family” (Biochem Biophys Res Commun, 1998).

Data set [1] addresses T1, Organic cation/carnitine transporter 2 (Homo sapiens, UniProt O76082).
T1 sequence (O76082 whole entry): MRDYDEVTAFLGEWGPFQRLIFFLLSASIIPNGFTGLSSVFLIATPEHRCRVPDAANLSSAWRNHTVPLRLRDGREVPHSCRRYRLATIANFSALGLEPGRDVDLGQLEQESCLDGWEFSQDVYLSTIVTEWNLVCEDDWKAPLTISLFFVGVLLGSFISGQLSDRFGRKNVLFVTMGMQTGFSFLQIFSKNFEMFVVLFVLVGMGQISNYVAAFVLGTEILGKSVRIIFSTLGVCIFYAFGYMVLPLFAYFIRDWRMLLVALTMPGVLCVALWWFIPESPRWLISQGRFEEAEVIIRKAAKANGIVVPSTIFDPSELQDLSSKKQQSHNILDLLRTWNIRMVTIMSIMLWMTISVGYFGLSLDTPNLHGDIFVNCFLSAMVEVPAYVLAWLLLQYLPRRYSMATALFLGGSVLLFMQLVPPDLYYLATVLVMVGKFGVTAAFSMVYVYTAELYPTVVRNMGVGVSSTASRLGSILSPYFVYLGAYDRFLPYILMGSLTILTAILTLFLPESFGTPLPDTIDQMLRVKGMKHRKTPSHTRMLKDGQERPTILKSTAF
The data set can be described thus: TP_TRANSPORTER: inhibition of TEA uptake (TEA: 20 uM, MPP+: 5000 uM) in OCTN2-expressing HeLa cells. Type of data set: functional, cell-based. The arrangement: scale not given: the % may be the effect or the level left.

The target in data set [2] is T1, Organic cation/carnitine transporter 2. The data set can be described thus: TP_TRANSPORTER: inhibition of TEA uptake (TEA: 20 uM, Amphetamine: 5000 uM) in OCTN2-expressing HeLa cells. Format: functional, cell-based.
In data set [3] the target is T2, OCTN2 (organic cation/carnitine transporter 2) (Homo sapiens, UniProt O76082).
T2 sequence (O76082 whole entry): T1 sequence (O76082 whole entry)
The data set can be described thus: in vitro. The settings on record: HeLa cells that express OCTN2, probe TEA, 20 uM.
Description: TP_TRANSPORTER: inhibition of TEA uptake (TEA: 20 uM, Choline: 5000 uM) in OCTN2-expressing HeLa cells

Data set [4] addresses T2, OCTN2 (organic cation/carnitine transporter 2). Put plainly: in vitro. To be noted: HeLa cells that express OCTN2, probe TEA, 20 uM. This is another data set of the same source.
Description: TP_TRANSPORTER: inhibition of TEA uptake (TEA: 20 uM, Cimetidine: 5000 uM) in OCTN2-expressing HeLa cells
Data set [5] deals with T1, Organic cation/carnitine transporter 2. The data set can be described thus: TP_TRANSPORTER: inhibition of TEA uptake (TEA: 20 uM, Guanidine: 5000 uM) in OCTN2-expressing HeLa cells. Type of data set: functional, cell-based.
For data set [6], the target named is T2, OCTN2 (organic cation/carnitine transporter 2). The data set can be described thus: TP_TRANSPORTER: inhibition of TEA uptake (TEA: 20 uM, Methamphetamine: 5000 uM) in OCTN2-expressing HeLa cells. Type of data set: functional, cell-based. Set-up: scale not given: the % may be the effect or the level left. To be noted: HeLa cells that express OCTN2, probe TEA, read-out: Activity.

The target is the same in data set [7]. Put plainly: in vitro. The settings on record: HeLa cells that express OCTN2, probe TEA, 20 uM. This is another data set of the same source.
Description: TP_TRANSPORTER: inhibition of TEA uptake (TEA: 20 uM, Nicotine: 5000 uM) in OCTN2-expressing HeLa cells
For data set [8] the target is unchanged. The data set can be described thus: TP_TRANSPORTER: inhibition of TEA uptake (TEA: 20 uM Procainamide: 5000 uM) in OCTN2-expressing HeLa cells. The arrangement: scale not given: the % may be the effect or the level left. Format: functional, cell-based. To be noted: HeLa cells that express OCTN2, probe TEA, read-out: Activity.

In turn, `C[n+]1ccc(-c2ccccc2)cc1` displayed an Activity in data set [1] of 39%.

Take `CC(N)Cc1ccccc1` (stereo not drawn) [AMPHETAMINE]: the Activity result in data set [2] was “is not an inhibitor [-]”.

In data set [3], `C[N+](C)(C)CCO` [CHOLINE] gave an activity at 5000 µM of 75%.

In the case of `CN/C(=N/CCSCc1nc[nH]c1C)NC#N` [CIMETIDINE], the activity at 5000 µM in data set [4] stood at 39%. For `N=C(N)N` [GUANIDINE], in data set [5], the Activity result is “is not an inhibitor [-]”.

As for `CN[C@@H](C)Cc1ccccc1` [METHAMPHETAMINE], the activity at 5000 µM in data set [6] was 66%. With `CN1CCC[C@H]1c1cccnc1` [NICOTINE], the activity at 5000 µM in data set [7] stood at 44%. As for `CCN(CC)CCNC(=O)c1ccc(N)cc1` [PROCAINAMIDE], the activity at 5000 µM in data set [8] was determined as 39%.
